Assay results: ChEMBL document CHEMBL2202954, “The effect of PLC-γ2 inhibitors on the growth of human tumour cells” (2012)

Tests used:
Assay type in all cases: functional
HL-60(TB) = test: Cytotoxicity against human HL-60(TB) cells assessed as cellular growth at 10 uM by SRB assay
CAKI-1 = test: Cytotoxicity against human Caki1 cells assessed as cellular growth at 10 uM by SRB assay
IGROV-1 = test: Cytotoxicity against human IGROV1 cells assessed as cellular growth at 10 uM by SRB assay
NCI-H23 = test: Cytotoxicity against human NCI-H23 cells assessed as cellular growth at 10 uM by SRB assay
UO-31 = test: Cytotoxicity against human UO31 cells assessed as cellular growth at 10 uM by SRB assay
SK-MEL-28 = test: Cytotoxicity against human SK-MEL-28 cells assessed as cellular growth at 10 uM by SRB assay
MDA-MB-435 = test: Cytotoxicity against human MDA-MB-435 cells assessed as cellular growth at 10 uM by SRB assay
A498 = test: Cytotoxicity against human A498 cells assessed as cellular growth at 10 uM by SRB assay
NCI-H226 = test: Cytotoxicity against human NCI-H226 cells assessed as cellular growth at 10 uM by SRB assay
RPMI-8226 = test: Cytotoxicity against human RPMI8226 cells assessed as cellular growth at 10 uM by SRB assay
OVCAR-4 = test: Cytotoxicity against human OVCAR4 cells assessed as cellular growth at 10 uM by SRB assay
KM12 = test: Cytotoxicity against human KM12 cells assessed as cellular growth at 10 uM by SRB assay
NCI-H322M = test: Cytotoxicity against human NCI-H322M cells assessed as cellular growth at 10 uM by SRB assay
[1] = Cytotoxicity against human NCI-ADR-RES cells assessed as cellular growth at 10 uM by SRB assay
OVCAR-8 = test: Cytotoxicity against human OVCAR8 cells assessed as cellular growth at 10 uM by SRB assay
SR = test: Cytotoxicity against human SR cells assessed as cellular growth at 10 uM by SRB assay
SNB-75 = test: Cytotoxicity against human SNB75 cells assessed as cellular growth at 10 uM by SRB assay
HCC 2998 = test: Cytotoxicity against human HCC2998 cells assessed as cellular growth at 10 uM by SRB assay
SF-295 = test: Cytotoxicity against human SF295 cells assessed as cellular growth at 10 uM by SRB assay
TK-10 = test: Cytotoxicity against human TK10 cells assessed as cellular growth at 10 uM by SRB assay
HCT-15 = test: Cytotoxicity against human HCT15 cells assessed as cellular growth at 10 uM by SRB assay
RXF 393 = test: Cytotoxicity against human RXF393 cells assessed as cellular growth at 10 uM by SRB assay
PC-3 = test: Cytotoxicity against human PC3 cells assessed as cellular growth at 10 uM by SRB assay
SK-OV-3 = test: Cytotoxicity against human SKOV3 cells assessed as cellular growth at 10 uM by SRB assay
M14 = test: Cytotoxicity against human M14 cells assessed as cellular growth at 10 uM by SRB assay
LOX IMVI = test: Cytotoxicity against human LOXIMVI cells assessed as cellular growth at 10 uM by SRB assay
NCI-H522 = test: Cytotoxicity against human NCI-H522 cells assessed as cellular growth at 10 uM by SRB assay
CCRF-CEM = test: Cytotoxicity against human CCRF-CEM cells assessed as cellular growth at 10 uM by SRB assay
HOP-92 = test: Cytotoxicity against human HOP92 cells assessed as cellular growth at 10 uM by SRB assay
SK-MEL-5 = test: Cytotoxicity against human SK-MEL-5 cells assessed as cellular growth at 10 uM by SRB assay
COLO 205 = test: Cytotoxicity against human COLO205 cells assessed as cellular growth at 10 uM by SRB assay
K562 = test: Cytotoxicity against human K562 cells assessed as cellular growth at 10 uM by SRB assay
EKVX = test: Cytotoxicity against human EKVX cells assessed as cellular growth at 10 uM by SRB assay
OVCAR-3 = test: Cytotoxicity against human OVCAR3 cells assessed as cellular growth at 10 uM by SRB assay
SK-MEL-2 = test: Cytotoxicity against human SK-MEL-2 cells assessed as cellular growth at 10 uM by SRB assay
BT-549 = test: Cytotoxicity against human BT549 cells assessed as cellular growth at 10 uM by SRB assay
A549 = test: Cytotoxicity against human A549 cells assessed as cellular growth at 10 uM by SRB assay
MOLT-4 = test: Cytotoxicity against human MOLT4 cells assessed as cellular growth at 10 uM by SRB assay
ACHN = test: Cytotoxicity against human ACHN cells assessed as cellular growth at 10 uM by SRB assay
SF-539 = test: Cytotoxicity against human SF539 cells assessed as cellular growth at 10 uM by SRB assay
HCT-116 = test: Cytotoxicity against human HCT116 cells assessed as cellular growth at 10 uM by SRB assay
SN12C = test: Cytotoxicity against human SN12C cells assessed as cellular growth at 10 uM by SRB assay
U-251 = test: Cytotoxicity against human U251 cells assessed as cellular growth at 10 uM by SRB assay
MCF7 = test: Cytotoxicity against human MCF7 cells assessed as cellular growth at 10 uM by SRB assay
SNB-19 = test: Cytotoxicity against human SNB19 cells assessed as cellular growth at 10 uM by SRB assay
NCI-H460 = test: Cytotoxicity against human NCI-H460 cells assessed as cellular growth at 10 uM by SRB assay
SW-620 = test: Cytotoxicity against human SW620 cells assessed as cellular growth at 10 uM by SRB assay
OVCAR-5 = test: Cytotoxicity against human OVCAR5 cells assessed as cellular growth at 10 uM by SRB assay
HT-29 = test: Cytotoxicity against human HT-29 cells assessed as cellular growth at 10 uM by SRB assay
HOP-62 = test: Cytotoxicity against human HOP62 cells assessed as cellular growth at 10 uM by SRB assay
DU-145 = test: Cytotoxicity against human DU145 cells assessed as cellular growth at 10 uM by SRB assay
Hs-578T = test: Cytotoxicity against human Hs578T cells assessed as cellular growth at 10 uM by SRB assay
Malme-3M = test: Cytotoxicity against human MALME-3M cells assessed as cellular growth at 10 uM by SRB assay
MDA-MB-231 = test: Cytotoxicity against human MDA-MB-231 cells assessed as cellular growth at 10 uM by SRB assay
T47D = test: Cytotoxicity against human T47D cells assessed as cellular growth at 10 uM by SRB assay
SF-268 = test: Cytotoxicity against human SF268 cells assessed as cellular growth at 10 uM by SRB assay
786-0 = test: Cytotoxicity against human 786-0 cells assessed as cellular growth at 10 uM by SRB assay
UACC-257 = test: Cytotoxicity against human UACC257 cells assessed as cellular growth at 10 uM by SRB assay
UACC-62 = test: Cytotoxicity against human UACC62 cells assessed as cellular growth at 10 uM by SRB assay
MDA-MB-468 = test: Cytotoxicity against human MDA-MB-468 cells assessed as cellular growth at 10 uM by SRB assay

With `CC1(C)CC(=O)c2cc3c(N)c(C(=O)NCc4ccccc4)sc3nc2C1` as the compound, how does the Activity (HL-60(TB)) read?
The Activity was 120.86%.

What about the Activity (CAKI-1) of the same compound?
Its Activity is 110.35%.

And the Activity (IGROV-1)?
Its Activity is 107.02%.

What about the Activity (NCI-H23) of the same compound?
Its Activity is 97.31%.

What about the Activity (UO-31) of the same compound?
The Activity was 110.68%.

And the Activity (SK-MEL-28)?
The Activity was 102.38%.

And the Activity (MDA-MB-435)?
Its Activity is 91.3%.

What about the Activity (A498) of the same compound?
The Activity was 89.05%.

And the Activity (NCI-H226)?
Its Activity is 86.42%.

What about the Activity (RPMI-8226) of the same compound?
The Activity was 101.22%.

What about the Activity (OVCAR-4) of the same compound?
Its Activity is 78.52%.

And the Activity (KM12)?
The Activity was 105.75%.

What about the Activity (NCI-H322M) of the same compound?
Its Activity is 101.83%.

And the Activity [1]?
The Activity was 93.37%.

What about the Activity (OVCAR-8) of the same compound?
Its Activity is 95.57%.

And the Activity (SR)?
Its Activity is 116.5%.

And the Activity (SNB-75)?
The Activity was 98.33%.

And the Activity (HCC 2998)?
The Activity was 101.88%.

And the Activity (SF-295)?
Its Activity is 100.81%.

What about the Activity (TK-10) of the same compound?
Its Activity is 106.71%.

And the Activity (HCT-15)?
Its Activity is 100.56%.

And the Activity (RXF 393)?
Its Activity is 93.07%.

And the Activity (PC-3)?
Its Activity is 95.51%.

And the Activity (SK-OV-3)?
Its Activity is 111.17%.

What about the Activity (M14) of the same compound?
Its Activity is 98.42%.

What about the Activity (LOX IMVI) of the same compound?
Its Activity is 102.22%.

And the Activity (NCI-H522)?
The Activity was 92.67%.

And the Activity (CCRF-CEM)?
Its Activity is 99.55%.

What about the Activity (HOP-92) of the same compound?
The Activity was 60.17%.

And the Activity (SK-MEL-5)?
Its Activity is 91.1%.

What about the Activity (COLO 205) of the same compound?
Its Activity is 128.9%.

What about the Activity (K562) of the same compound?
The Activity was 117.84%.

What about the Activity (EKVX) of the same compound?
The Activity was 108.91%.

And the Activity (OVCAR-3)?
The Activity was 115.21%.

And the Activity (SK-MEL-2)?
The Activity was 114.95%.

And the Activity (BT-549)?
Its Activity is 110.98%.

What about the Activity (A549) of the same compound?
Its Activity is 99.09%.

What about the Activity (MOLT-4) of the same compound?
Its Activity is 124.23%.

And the Activity (ACHN)?
The Activity was 102.79%.

And the Activity (SF-539)?
The Activity was 96.57%.

And the Activity (HCT-116)?
Its Activity is 103.66%.

And the Activity (SN12C)?
Its Activity is 98.59%.

And the Activity (U-251)?
The Activity was 99.82%.

What about the Activity (MCF7) of the same compound?
The Activity was 87.02%.

What about the Activity (SNB-19) of the same compound?
The Activity was 108.68%.

What about the Activity (NCI-H460) of the same compound?
The Activity was 101.02%.

And the Activity (SW-620)?
Its Activity is 111.03%.

And the Activity (OVCAR-5)?
Its Activity is 108.53%.

And the Activity (HT-29)?
The Activity was 106.09%.

What about the Activity (HOP-62) of the same compound?
The Activity was 95.84%.

What about the Activity (DU-145) of the same compound?
Its Activity is 113.73%.

And the Activity (Hs-578T)?
The Activity was 123.14%.

And the Activity (Malme-3M)?
Its Activity is 104.51%.

And the Activity (MDA-MB-231)?
The Activity was 101.13%.

What about the Activity (T47D) of the same compound?
Its Activity is 100.55%.

And the Activity (SF-268)?
The Activity was 102.72%.

And the Activity (786-0)?
Its Activity is 109.38%.

What about the Activity (UACC-257) of the same compound?
Its Activity is 104.6%.

What about the Activity (UACC-62) of the same compound?
The Activity was 102.76%.

What about the Activity (MDA-MB-468) of the same compound?
Its Activity is 93.1%.
